Where “and” joins values, the source holds several entries; their conditions need not be identical. Equal entries are not always repeated. Entries after “also recorded” stand apart in the source; their conditions may differ. Where two headings read alike, the source gives them in different places.
Experiments:
[1] = system: SH-SY5Y human neuroblastoma cells; experiment: MTT cytotoxicity assay, SH-SY5Y; format: cell-based; settings: mean ± SD, read-out: Cytotoxic activity IC50, SH-SY5Y
Excerpt: (§1) The human neuroblastoma cells (SH-SY5Y), triple-negative breast cancer cells (MDA-MB-231), and human pancreatic cancer cells (Panc1) used in this study were purchased from the American Type Culture Collection (ATCC). The cells were suspended in complete Dulbecco’s modified Eagle medium (DMEM) (Life Technologies, Gibco BRL, Grand Island, NY) supplemented with 10% fetal bovine serum (FBS, Hyclone), 1% penicillin and streptomycin (100 U/mL, Invitrogen) and plated in cell culture dishes. The cultures were maintained at 37 °C in a 5% CO2 95% humidified atmosphere. After reaching 85% confluence, the cells were transferred to 96-well plates or culture dishes. For MTT assays, the cells were seeded into 96-well cell culture plates at a density of 2 × 10^3 cells per well and allowed to adhere for 24 h. The cells were treated with fresh medium containing experimental compounds (100, 10, 1 µM) and incubated in a 5% CO2 incubator for 48 and 72 h. For protein analysis, the cells were seeded into 6-well cell culture plates at a density of 0.5 x 10^6 cells/well and allowed to adhere to the surface for 24 h. The stock solutions of the test compounds (5 mM) were prepared in sterile DMSO, and these stocks were then appropriately diluted with the complete culture medium. DMSO levels were maintained below 1% in the test concentrations.
(§2) Briefly, following exposures, MTT (at a final concentration of 0.5 mg/mL) was added to each well, and plates were incubated for 2 h at 37 °C in a 5% CO2 humidified incubator. The reaction mixture was removed, and DMSO was added to each well. The plates were shaken at room temperature, and the absorbance was measured at 570 nm and 630 nm using a microplate reader (VersaMax, Molecular Devices, USA). Percent survival was plotted relative to vehicle control cells, which were normalized to 100% survival.

[2] = system: PANC-1 human pancreatic cancer cells; experiment: MTT cytotoxicity assay, PANC-1; format: cell-based; settings: mean ± SD, read-out: Cytotoxic activity IC50, PANC-1
Excerpt: as §1, §2

[3] = system: MDA-MB-231 triple-negative breast cancer cells; experiment: MTT cytotoxicity assay, MDA-MB-231; format: cell-based, human; settings: mean ± SD, read-out: Cytotoxic activity IC50, MDA-MB-231
Excerpt: as §1, §2

[4] = MTT cytotoxicity assay, MCF-10a (nontumorigenic); format: cell-based; settings: MCF-10a nontumorigenic mammary cells, MCF-10a nontumorigenic human mammary cell line, mean ± SD, read-out: Cytotoxic activity IC50, MCF-10a
Excerpt: [The source words this procedure for another cell line and reports this cell line under the same test.] as §1, §2

[5] = system: BAX, Bcl-2, Bcl-xL, caspase-3 and caspase-9 expression in PANC-1 cell line; experiment: Western blot of apoptotic proteins, PANC-1; format: cell-based, human; settings: at IC50, 24 and 48 h, vs control
Description: (§3) The cells (0.5 × 10^6 cell/well) were seeded into 6 well plates and incubated for 24 h, and then treated with selected experimental compounds for 24 h and 48 h. Following incubation, the cells were washed with ice-cold 1X PBS and lysed in 1X cell lysis buffer. These lysates were quantified using the BCA protein assay. Then, the cell lysates were analyzed by western blot.
(§4) On a 12% (w/v) tris-glycine denaturing gel, 20 μg protein was separated by electrophoresis, and then transferred to a PVDF membrane. After blocking, the membrane was incubated with primary antibodies, anti-Bax rabbit monoclonal antibody, anti-Bcl-2 rabbit monoclonal antibody, anti-Bcl-xL rabbit monoclonal antibody, anti-caspase-3 rabbit monoclonal antibody, and anti-caspase-9 rabbit monoclonal antibody (1:1000, Cell Signaling Technology) at 4 °C overnight. Following the incubation, the membrane was incubated with an anti-β-actin mouse monoclonal antibody (1:1000, Cell Signaling Technology) at room temperature for 1 h. After washing, the membrane was incubated with peroxidase-conjugated secondary antibodies for 1 h to visualize labeled proteins by enhanced chemiluminescence.

[6] = system: BAX, Bcl-2, Bcl-xL, caspase-3 and caspase-9 expression in MDA-MB-231 cell line; experiment: Western blot of apoptotic proteins, MDA-MB-231; format: cell-based, human; settings: for BAX protein levels: after only 24 h
Description: as §3, §4

PANC-1 cells = experiment: Annexin V-FITC/PI flow cytometry, PANC-1; format: cell-based, human; settings: at cytotoxic concentrations, 48 h
Description: (§5) The cells were harvested after 48 h, washed with PBS, and analyzed using the Annexin V FITC/PI Apoptosis Detection kit (BioVision, Mountain View, CA, USA) with a benchtop flow cytometer (Accuri C6 flow cytometry, Becton Dickinson).

MDA-MB-231 cells = experiment: Annexin V-FITC/PI flow cytometry, MDA-MB-231; format: cell-based, human; settings: 48 h, control 1.2%
Description: as §5

SH-SY5Y cells = experiment: Annexin V-FITC/PI flow cytometry, SH-SY5Y; format: cell-based, human; settings: 48 h, control 3.2%
Description: as §5

melting point [°C]	Compound	IC50 ([1]; Homo sapiens, SH-SY5Y) [µM]	IC50 ([2]; Homo sapiens, PANC-1, MTT) [µM]	IC50 ([3]; Homo sapiens, MDA-MB-231, MTT) [µM]	IC50 [4] [µM]	IC50 ([2]; MTT) [µM]	BAX expression [5]	Bcl-2 expression [5]	BAX protein levels ([6]; Western blot)	IC50 [1] [µM]	IC50 ([3]; MTT)	increase of caspase-9 activity ([6]; after only 48 h, relative to control) [fold]	Bcl-xL expression [5]	caspase-3 expression [5]	caspase-9 expression [5]	caspase-3 expression (in words) ([6]; Western blot)	decrease of Bcl-2 expression ([6]; after 24 and 48 h, compared to control)	apoptotic cell ratios (Annexin V-FITC/PI result) (PANC-1 cells)	percent of the positive apoptotic cells (MDA-MB-231 cells)	apoptotic cell ratios (SH-SY5Y cells)
162 to 163	O=C(NCCS(=O)(=O)N1CCOCC1)c1ccc(Cl)cc1 [Compound 6, 4-Chloro-N-(2-(morpholinosulfonyl)ethyl)benzamide]	80.6	8.8 ± 2.1	79.1	70.7 ± 1.8	–	–	–	significantly increased	80.6 ± 1.9	136 ± 1.5 µM	1.06	–	–	–	–	–	–	–	–
183.5 to 184.5	COc1ccc(C(=O)NCCS(=O)(=O)N2CCOCC2)cc1 [Compound 7, 4-Methoxy-N-(2-(morpholinosulfonyl)ethyl)benzamide]	134 ± 1.7	1.2 ± 1.8	136	118 ± 1.2	–	effectively upregulated	did not show any effect	significantly increased	–	79 µM and 77 µM	–	slightly decreased	effectively upregulated	effectively upregulated	lack of change	2- to 3 fold	no significant changes; also recorded: negative	no changes	no positive results
174.2 to 175.2	Cc1ccc(C(=O)NCCS(=O)(=O)N2CCOCC2)cc1 [Compound 8, 4-Methyl-N-(2-(morpholinosulfonyl)ethyl)benzamide]	79.3 ± 1.6	120.3 ± 1.2	81.5 ± 1.2	81.4 ± 1.3	–	–	–	–	–	–	–	–	–	–	–	–	–	–	–

More lines, now with the values behind:

Compound	melting point [°C]	IC50 ([1]; Homo sapiens, SH-SY5Y) [µM]	IC50 ([2]; Homo sapiens, PANC-1, MTT) [µM]	IC50 ([3]; Homo sapiens, MDA-MB-231, MTT) [µM]	IC50 [4] [µM]	IC50 ([2]; MTT) [µM]	BAX expression [5]	Bcl-2 expression [5]	BAX protein levels ([6]; Western blot)	IC50 [1] [µM]	IC50 ([3]; MTT)	increase of caspase-9 activity ([6]; after only 48 h, relative to control) [fold]	Bcl-xL expression [5]	caspase-3 expression [5]	caspase-9 expression [5]	caspase-3 expression (in words) ([6]; Western blot)	decrease of Bcl-2 expression ([6]; after 24 and 48 h, compared to control)	apoptotic cell ratios (Annexin V-FITC/PI result) (PANC-1 cells)	percent of the positive apoptotic cells (MDA-MB-231 cells)	apoptotic cell ratios (SH-SY5Y cells)
O=C(NCCS(=O)(=O)Nc1ccccc1)c1ccccc1 [Compound 1, N-(2-(N-phenylsulfamoyl)ethyl)benzamide]	123.7 to 124.7	92.2 ± 1.5	86.7 ± 1.4	140.4 ± 1.1	78.2 ± 1.6	–	–	–	–	–	–	–	–	–	–	–	–	–	–	–
O=C(NCCS(=O)(=O)Nc1ccccc1)c1ccc(Cl)cc1 [Compound 2, 4-Chloro-N-(2-(N-phenylsulfamoyl)ethyl)benzamide]	143.8 to 144.8	29 ± 1.5	86.6	99.7 ± 1.1	232.9 ± 2.1	86.6 ± 1.6	significantly upregulated	significantly upregulated	significantly increased	–	–	–	–	–	–	–	–	–	–	–
COc1ccc(C(=O)NCCS(=O)(=O)Nc2ccccc2)cc1 [Compound 3, 4-Methoxy-N-(2-(N-phenylsulfamoyl)ethyl)benzamide]	121.3 to 122.3	57.4 ± 1.6	104 ± 1.6	111 ± 1.2	98.9 ± 1.2	–	–	–	–	–	–	–	–	–	–	–	–	–	–	–
Cc1ccc(C(=O)NCCS(=O)(=O)Nc2ccccc2)cc1 [Compound 4, 4-Methyl-N-(2-(N-phenylsulfamoyl)ethyl)benzamide]	149.7 to 150.7	75.9 ± 1.6	86.6 ± 1.4	89.7 ± 1.5	132 ± 1.7	–	–	–	–	–	–	–	–	–	–	–	–	–	–	–
O=C(NCCS(=O)(=O)N1CCOCC1)c1ccccc1 [Compound 5, N-(2-(morpholinosulfonyl)ethyl)benzamide]	107 to 108	118 ± 1.8	24.2 ± 2.1	103 ± 1.7	89.6 ± 1.5	–	–	–	–	–	–	–	–	–	–	–	–	–	–	–

Reference: article PMC7763113, “Design, synthesis, cytotoxic activity, and apoptosis inducing effects of 4- and N-substituted benzoyltaurinamide derivatives” (Turkish Journal of Chemistry, 2020)
